According to paper PMC10973027 (Molecular Imaging and Biology, 2023):

Test: Radio-HPLC metabolite analysis of mouse brain homogenate and plasma after IV radiotracer
Type: in vivo, male C57 black 6 mice
Procedure: In this preclinical study, two radiolabeling positions were investigated, [^11C-N-CH3]UCB2713 and [^11C]carbonyl UCB2713 ([^11C-CO]UCB2713). The radiolabeling of [^11C-N-CH3]UCB2713 was performed by N-methylation of the corresponding desmethyl precursor with [^11C]methyl iodide and radiolabeling of [^11C-CO]UCB2713 was performed by [^11C]aminocarbonylation of the iodo precursor and the amino precursor with [^11C]carbon monoxide in the presence of Pd(π-cinnamyl) chloride dimer and Xantphos (4,5-bis(diphenylphosphino)-9,9-dimethylxanthene) (Fig. 1b). For additional information on the precursor molecules and radiolabeling methods, see the electronic supplement. A high-performance liquid chromatography (HPLC) metabolite analysis method was developed to quantify the ratio of [^11C-N-CH3]UCB2713 and other unidentified metabolites in plasma and brain homogenate samples. Relative quantification was used to provide the ratio of parent to metabolite in these samples.
Preclinical experiments were conducted on male C57 black 6 mice (N = 10). In vivo experiments were performed on 3 mice and included a PET scan of the brain; ex vivo experiments were performed on all 10 mice and included samples of brain homogenate.
[11C]UCB2713 in vivo/ex vivo Evaluation
Administration of Radioligand and Collecting Samples
Each mouse received an intravenous (IV) bolus injection of [11C]UCB2713 via the jugular vein. The mean (standard deviation [SD]) mass of each radiotracer dose was 1.54 (± 1.03) µg; with a radioactive dose of 17.26 (± 10.88) MBq. At pre-defined time points (40, 60, and 90 min) post-administration of [11C]UCB2713, each mouse was euthanized by exsanguination, followed by cervical dislocation, with blood samples collected in heparin tubes and the brain dissected.
Brain Sample Processing and Preparation of Sample for Analysis
A sample of brain homogenate (1:1, brain:water) was assessed for radioactivity using a γ-counter. Brain homogenate was extracted with a ratio of 1:2 (homogenate:acetonitrile); a ratio of 1:1 was used for the first two animals. The mixture was vortexed for 3 min followed by centrifugation (12000 x g) for 5 min at room temperature. The extraction efficiency was […]
Brain extraction efficiency = counts per minute (CPM) in supernatant (brain extract)/CPM in brain homogenate extracted
To identify the parent-retention time based on the ultraviolet (UV) chromatogram, 20 µL of a solution containing UCB2713 was added to the supernatant (350 µL), followed by 350 µL of 50 mM ammonium formate (adjusted to pH 8), then 0.5 mL of the resulting solution was injected onto the high-performance liquid chromatography (HPLC) column.
Two aliquots of this solution were counted to determine the HPLC recovery as follows:
Recovery efficiency % = = i=1 ∙100 […]
Where “CPM(aliq.)” is the radioactivity measured for the HPLC brain homogenate samples aliquot, “Valiq.” Is the volume of each aliquot , “CPM fi” is the count per minute for fraction “i” and ∑ 30 is the sum of 30 fractions.
Mouse blood samples were centrifuged at 7500 x g for 3 min at 4 °C and plasma was extracted with a ratio of 1:1 (plasma:acetonitrile). The plasma extraction efficiency was […]
Plasma extraction efficiency = CPM in supernatant (plasma extract)/CPM in plasma […]
Samples were prepared as described above for the brain, and two aliquots of solution were counted to determine the HPLC column recovery.
HPLC Procedure and Data Analysis
The HPLC system used a pump, degasser, UV-Vis/Diode Array Detector, and fraction collector. HPLC conditions used were 55% acetonitrile and 45% 100 mM ammonium formate (Method 1), or 48% acetonitrile and 52% 100 mM ammonium formate (adjusted to pH 8; Method 2) as the mobile phase at 5 mL/min and an Agilent XDB-C18 semi-preparative […]
column (5 micron, 250 x 9.4 mm; Method 2); 30 sample fractions (Method 1) and 36 sample fractions (Method 2) were collected over either a 10- or 12-min run.
A radio-chromatogram was reconstructed from the HPLC fractions collected and the […]

| parent fraction in brain tissue (in-vivo metabolism studies in mice) [%] | SMILES | polar metabolites in mouse brain (radio-HPLC column eluent front ~1.5-2 min) | amount of desmethyl metabolite observed in mouse brain (radio-HPLC of brain homogenate after [11C-CO]UCB2713) |
| --- | --- | --- | --- |
| > 95 | CCCC[C@@H](Cc1c[nH]c2ccccc12)N[11C](=O)c1cnc(N2CCN(C)CC2)s1 [[^11C-CO]UCB2713] | no polar metabolite present in the mouse brain |  |
|  | CCCC[C@@H](Cc1c[nH]c2ccccc12)N[11C](=O)c1cnc(N2CCNCC2)s1 [desmethyl-[^11C-CO]UCB2713] |  | ~ 2% |
